In US20230399296A1, “RNA VIRUS INHIBITOR COMPOUNDS WITH IMPROVED METABOLIC STABILITY AND USES THEREOF” (priority 2022, published 2023):

Legend:
[1] = Microsomal stability, mouse liver microsomes; assay type: in vitro ADME
Description: (§1) Experiments were performed to assess the stability of the compounds in the presence of mouse and human liver microsomes. The experimental procedures there were used are described below. Examples of the percent remaining of the compound curves in the presence of human microsomes are shown in FIGS. 2A to 2F, and examples of the determined half-life are provided in TABLE 3.
(§2) Intermediate solution: 5 μL of compound and control stock solution (10 mM in dimethyl sulfoxide (DMSO)) were diluted with 495 μL of acetonitrile (ACN) (intermediate solution concentration: 100 μM, 99% ACN).
(§3) Working solution: 50 μL of compound and control intermediate solution (100 μM) were diluted with 450 μL of 100 mM potassium phosphate buffer (working solution concentration: 10 μM, 9.9% ACN).
(§4) The appropriate amount of NADPH powder was weighed and diluted into a 10 mM MgCl2 solution (working solution concentration: 10 unit/mL; final concentration in reaction system: 1 unit/mL).
(§5) The appropriate concentrations of microsome working solutions were prepared in 100 mM potassium phosphate buffer.
(§6) Cold (4° C.) acetonitrile (ACN) containing 200 ng/mL tolbutamide and 200 ng/mL labetalol as internal standards (IS) was used as the stop solution.
(§7) Using an Apricot automation workstation, 10 μL/well of compound working solution were added to all 96-well reaction plates except the blank (T0, T5, T10, T20, T30, T60, and NCF60). An Apricot automation workstation was used to add 80 μL/well of microsome solution to all reaction plates (Blank, T0, T5, T10, T20, T30, T60, and NCF60). All reaction plates containing mixtures of compound and microsomes were pre-incubated at 37° C. for 10 minutes. An Apricot automation workstation was used to add 10 μL/well of 100 mM potassium phosphate buffer to reaction plate NCF60. Reaction plate NCF60 was incubated at 37° C., and timer 1 was started. After pre-incubation, an Apricot automation workstation was used to add 10 μL/well of NADPH regenerating system to every reaction plate except NCF60 (Blank, T0, T5, T10, T20, T30, and T60) to start the reaction. The reaction plates were incubated at 37° C., and timer 2 was started. An Apricot automation workstation was used to add 300 μL/well of stop solution to each reaction plate at its appropriate end time point to terminate the reaction. Each plate was sealed and shaken for 10 minutes. After shaking, each plate was centrifuged at 4000 rpm and 4° C. for 20 minutes. During centrifugation, an Apricot automation workstation was used to add 300 μL/well of HPLC grade water to eight new 96-well plates. After centrifugation, an Apricot automation workstation was used to transfer 100 μL of supernatant from each reaction plate to its corresponding bioanaylsis plate. Each bioanalysis plate was sealed and shaken for 10 minutes prior to LC-MS/MS analysis.
(§8) The equation of first order kinetics was used to calculate T½: […]

[2] = Microsomal stability, human liver microsomes; assay type: in vitro ADME
Description: as §1, §2, §3, §4, §5, §6, §7, §8

SARS-CoV-2 3CLP = SARS-CoV-2 3CLP (Severe acute respiratory syndrome coronavirus 2 (2019-nCoV) (SARS-CoV-2), UniProt P0DTD1); assay: SARS-CoV-2 3CLP FRET inhibition assay; assay type: biochemical; conditions: 80 nM SARS-CoV-2 3CLP, 100 μM FRET substrate, pH 7.8, 37° C.; read-out: 3CL Protease IC50
Text: Compounds described herein were screened for SARS-CoV-2 3CLP inhibition using a Fluorescence resonance energy transfer (FRET) assay at different compound concentrations. Examples of the resulting concentration response curves are shown in FIGS. 1A and 1B, and examples of the determined 50 percent inhibition concentration (IC50) are provided in TABLE 1.
A synthesized fluorescent substrate containing the cleavage site (indicated by the arrow, ↓) of SARS-CoV-2 3CLP (2-Abz-SVTLQ↓SG-Tyr(NO2)—R—NH2) was used for the fluorescence resonance energy transfer (FRET)-based cleavage assay. The protease reaction of SARS-CoV-2 3CLP towards fluorescent substrate was performed in activity buffer (20 mM Bis Tris, pH 7.8, 1 mM DTT) at 37° C. for 10 min. The final concentration of protease used in the assay was fixed at 80 nM and the concentrations of the substrate were varied from 0.1 to 500 μM. Reaction was started with the enzyme and the fluorescence signal of the Abz-SVTLQ peptide cleavage product was monitored at an emission wavelength of 420 nm with excitation at 320 nm, using an Flx800 fluorescence spectrophotometer (BioTek). Before kinetic calculations, it was verified that the proportionality between the fluorescence emitted and the amount of the substrate used in the assay was linear. The minimal concentration of the enzyme and time of reaction that gave a linear dependence of amount of generated product with time was chosen. Initial velocities in corresponding relative fluorescence units per unit of time (ARFU/s) were converted to the amount of the cleaved substrate per unit of time (M/s) by fitting to the calibration curve of free Aminobenzoyl-SVTLQ. All data are corrected for inner filter effects by an adopted literature protocol. In short, the fluorescence signal (RFU) at each substrate concentration was determined and defined as f(FRET). Then, 5 μL free Aminobenzoyl-SVTLQ at final 5 μM was added to each concentration and fluorescence was taken f(FRET+Aminobenzoyl-SVTLQ). Simultaneously, a reference reading was taken with the same free Aminobenzoyl-SVTLQ concentration and defined as f(ref). The inner-filter correction was obtained as:
Stock solutions of the compounds were prepared with DMSO. For the determination of the IC50, 80 nM of SARS-CoV-2 3CLP was incubated with the compounds at various concentrations from 0 to 100 μM in 20 mM Bis-Tris, pH 7.8, 1 mM DTT at 37° C. for 10 min. The protease reaction was started by addition of 100 μM of the substrate. The GraphPad Prism 6.0 software (GraphPad) was used for the calculation of the IC50 values.

in vitro = assay type: cell-based; conditions: male, human (A549); green monkey (Vero E6)
Description: Cell viability was measured using the CellTiter-Glo luminescent cell viability assay (Promega). Separately A549 (human lung epithelial) cells and VeroE6 cells were seeded at 5×10^3 cells/well in 96-well plates and incubated overnight before treatment. Compounds were solubilized in DMSO and added to cells in an eight-point four-fold serial dilution (200 μM to 0.0122 μM). Cells were incubated in the presence of compounds for 24 hours before addition of the luminescence substrate and measurement of ATP activity according to manufacturer's instructions. The percentage of viable cells was calculated relative to cells treated with solvent alone (0.5% DMSO).

SARS-CoV-2 = SARS-CoV-2 plaque reduction assay in Vero E6 cells; assay type: cell-based; conditions: Severe acute respiratory syndrome coronavirus 2, Vero C1008, 48 h, read-out: SARS-CoV-2 Antiviral EC50
[3] = mouse liver microsomes, NADPH, 37° C., read-out: Mouse Microsomes Half-life
[4] = human liver microsomes, NADPH, 37° C., read-out: Human Microsomes Half-life

| Structure (SMILES) | half-life at 1 μM ([1]; mouse, microsomes) [min] | half-life at 1 μM ([2]; human, microsomes) [min] | IC50 (SARS-CoV-2 3CLP) [µM] | CC50 at 24 h (in vitro) [µM] | EC50 (SARS-CoV-2) [µM] | half-life at 1 μM [1, 3] [min] | half-life at 1 μM [2, 4] [min] |
| --- | --- | --- | --- | --- | --- | --- | --- |
| COc1cccc2[nH]c(C(=O)N[C@@H](CC(C)C)C(=O)N[C@@H](C[C@@H]3CCCNC3=O)C(=O)CO)cc12 [AVI-8004, reference compound] | 12 | 34 | – | – | – | – | – |
| COc1cccc2[nH]c(C(=O)N[C@@H](CC(C)C)C(=O)N[C@H](C#N)C[C@@H]3CCCNC3=O)cc12 [AVI-8059, reference compound] | 10 | 16 | – | – | – | – | – |
| O=C(N[C@@H](CC1CC1)C(=O)N[C@@H](C[C@@H]1CCCNC1=O)C(=O)CO)c1cc2cc(F)cc(F)c2[nH]1 [Compound 1, N-[(2S)-3-cyclopropyl-1-({(2S)-4-hydroxy-3-oxo-1-[(3S)-2-oxopiperidin-3-yl]butan-2-yl}amino)-1-oxopropan-2-yl]-5,7-difluoro-1H-indole-2-carboxamide] | – | – | < 0.05 | > 200 | < 10 | 57 | 46 |
| O=C(N[C@@H](CC1CC1)C(=O)N[C@@H](C[C@@H]1CCCNC1=O)C(=O)CO)c1cc2cccc(Cl)c2[nH]1 [Compound 2, 7-chloro-N-[(2S)-3-cyclopropyl-1-({(2S)-4-hydroxy-3-oxo-1-[(3S)-2-oxopiperidin-3-yl]butan-2-yl}amino)-1-oxopropan-2-yl]-1H-indole-2-carboxamide] | – | – | < 0.05 | > 200 | < 5 | 15 | 26 |
| O=C(N[C@@H](CC1CC1)C(=O)N[C@@H](C[C@@H]1CCNC1=O)C(=O)CO)c1cc2cc(F)cc(F)c2[nH]1 [Compound 3, N-[(2S)-3-cyclopropyl-1-({(2S)-4-hydroxy-3-oxo-1-[(3S)-2-oxopyrrolidin-3-yl]butan-2-yl}amino)-1-oxopropan-2-yl]-5,7-difluoro-1H-indole-2-carboxamide] | – | – | < 0.01 | > 200 | < 5 | 124 | > 145 |
| O=C(N[C@@H](CC1CC1)C(=O)N[C@@H](C[C@@H]1CCNC1=O)C(=O)CO)c1cc2cccc(Cl)c2[nH]1 [Compound 4, 7-chloro-N-[(2S)-3-cyclopropyl-1-({(2S)-4-hydroxy-3-oxo-1-[(3S)-2-oxopyrrolidin-3-yl]butan-2-yl}amino)-1-oxopropan-2-yl]-1H-indole-2-carboxamide] | – | – | < 0.01 | > 200 | < 5 | 38 | 76 |
| O=C(N[C@@H](CC1CC1)C(=O)N[C@@H](C[C@@H]1CCNC1=O)C(=O)CO)c1cc2cccc(F)c2[nH]1 [Compound 5, N-[(2S)-3-cyclopropyl-1-({(2S)-4-hydroxy-3-oxo-1-[(3S)-2-oxopyrrolidin-3-yl]butan-2-yl}amino)-1-oxopropan-2-yl]-7-fluoro-1H-indole-2-carboxamide] | – | – | < 0.05 | > 200 | 5 to 10 | 124 | > 145 |
| O=C(N[C@@H](CC1CC1)C(=O)N[C@@H](C[C@@H]1CCCNC1=O)C(=O)CO)c1cc2cccc(F)c2[nH]1 [Compound 9, N-[(2S)-3-cyclopropyl-1-({(2S)-4-hydroxy-3-oxo-1-[(3S)-2-oxopiperidin-3-yl]butan-2-yl}amino)-1-oxopropan-2-yl]-7-fluoro-1H-indole-2-carboxamide] | – | – | < 0.01 | > 200 | < 5 | 91 | 74 |
| CC(C)[C@H](N)C(=O)OCC(=O)[C@H](C[C@@H]1CCCNC1=O)NC(=O)[C@H](CC1CC1)NC(=O)c1cc2cc(F)cc(F)c2[nH]1.Cl [Compound 17, (3S)-3-{[3-cyclopropyl-N-(5,7-difluoro-1H-indole-2-carbonyl)-L-alanyl]amino}-2-oxo-4-[(3S)-2-oxopiperidin-3-yl]butyl L-valinate hydrochloride Salt] | – | – | < 0.05 | > 200 | < 5 | 6 | 6 |
| N#C[C@H](C[C@@H]1CCCNC1=O)NC(=O)[C@H](CC1CC1)NC(=O)c1cc2cccc(Cl)c2[nH]1 [PBI-0451, reference compound] | 12 | 11 | – | – | – | – | – |
| CC(C)(C)[C@H](NC(=O)C(F)(F)F)C(=O)N1C[C@H]2[C@@H]([C@H]1C(=O)N[C@H](C#N)C[C@@H]1CCNC1=O)C2(C)C [nirmatrelvir, reference compound] | 15 | 40 | – | – | – | – | – |
